Here are results for six compounds from ChEMBL document CHEMBL1146193, “Increased genome instability in Escherichia coli lon mutants: relation to emergence of multiple-antibiotic-resistant (Mar) mutants caused by insertion sequence elements and large tandem genomic amplifications” (2007).

Assay type in all cases: functional
For test [1], the system named is Escherichia coli. As to the kind of experiment: Antimicrobial activity against Escherichia coli AG100 mutant with argE3 thi-3 rpsL xyl mtl supE44 genotype.
Test [2] relates to Escherichia coli. As to the kind of experiment: Antimicrobial activity against Escherichia coli M043 mutant with AG100 lon4::IS186 marR::IS2 genotype.
Test [3] deals with Escherichia coli. As to the kind of experiment: Antimicrobial activity against Escherichia coli M044 mutant with AG100 lon4::IS186 marR::IS genotype.
The test system of test [4] is Escherichia coli. Description: Antimicrobial activity against Escherichia coli M064 mutant with AG100 lon1::IS186 acrR::IS genotype.
The subject of test [5] is Escherichia coli. As to the kind of experiment: Antimicrobial activity against Escherichia coli M073 mutant with AG100 lon2::IS186 acrR::IS5 genotype.
Test [6] has as its system Escherichia coli. As to the kind of experiment: Antimicrobial activity against Escherichia coli M074 mutant with AG100 lon2::IS186 acrR::IS genotype.
Test [7] concerns Escherichia coli. As to the kind of experiment: Antimicrobial activity against Escherichia coli M083 mutant with AG100 lon4::IS186 acrR::IS1 genotype.
Test [8] concerns Escherichia coli. Description: Antimicrobial activity against Escherichia coli M084 mutant AG100 lon4::IS186 genotype.
The test system of test [9] is Escherichia coli. As to the kind of experiment: Antimicrobial activity against Escherichia coli M093 mutant with AG100 lon3::IS186 acrR::IS1 genotype.
Test [10] relates to Escherichia coli. Description: Antimicrobial activity against Escherichia coli M103 mutant with AG100 lon3::IS186 acrR-acrAB genotype.
In test [11] the test system is Escherichia coli. Description: Antimicrobial activity against Escherichia coli M104 mutant with AG100 dupIS3 genotype.
In test [12] the test system is Escherichia coli. Description: Antimicrobial activity against Escherichia coli M114 mutant with AG100 lon4::IS186 marR::IS2 genotype.
Test [13] deals with Escherichia coli. As to the kind of experiment: Antimicrobial activity against Escherichia coli M124 mutant with AG100 lon4::IS186 acrR::IS genotype.
Test [14] deals with Escherichia coli. Description: Antimicrobial activity against Escherichia coli AG112 mutant with AG100 marR genotype.
Test [15] has as its system Escherichia coli. Description: Antimicrobial activity against Escherichia coli AG112 mutant with marR genotype after 250 generations in 5 ug/ml presence of tetracycline.
For test [16], the system named is Escherichia coli. As to the kind of experiment: Antimicrobial activity against Escherichia coli AG112 mutant with marR genotype after 125 generations in absence of tetracycline.
In test [17] the test system is Escherichia coli. Description: Antimicrobial activity against Escherichia coli M013 mutant with AG100 delta-(lon-hupB-ppiD) dupIS5 genotype.

Structures are written as SMILES. In brackets after ≈: the same amount, converted by molar mass.

On to `CCn1cc(C(=O)O)c(=O)c2ccc(C)nc21` [NALIDIXIC ACID], for which the minimum inhibitory concentration (MIC) (as a rule, the lowest concentration found to suppress growth) was 6 µg/mL (≈ 25.8 µM) in test [1]; 8 µg/mL (≈ 34.4 µM) in test [2]; 12 µg/mL (≈ 51.7 µM) in test [3]; 12 µg/mL (≈ 51.7 µM) in [4]; 8 µg/mL (≈ 34.4 µM) in test [5]; 8 µg/mL (≈ 34.4 µM) in [6]. In addition, the minimal inhibitory concentration (MIC) in test [7] came out at 8 µg/mL (≈ 34.4 µM); in test [8] it was 6 µg/mL (≈ 25.8 µM); in test [9], 8 µg/mL (≈ 34.4 µM); in test [10] it was 6 µg/mL (≈ 25.8 µM); in test [11], 8 µg/mL (≈ 34.4 µM); in test [12], 8 µg/mL (≈ 34.4 µM). The MIC in test [13] came to 8 µg/mL (≈ 34.4 µM); in [14] it was 12 µg/mL (≈ 51.7 µM); in test [15], 192 µg/mL; in test [16], 24 µg/mL (≈ 103 µM).
With `O=C(N[C@H](CO)[C@H](O)c1ccc([N+](=O)[O-])cc1)C(Cl)Cl` [CHLORAMPHENICOL], the MIC was found to be 4 µg/mL (≈ 12.4 µM) in [1]; 64 µg/mL (≈ 198 µM) in test [2]; 32 µg/mL (≈ 99 µM) in [3]; 32 µg/mL (≈ 99 µM) in [4]; 32 µg/mL (≈ 99 µM) in test [5]; 48 µg/mL (≈ 149 µM) in test [6]. Moreover, the MIC in test [7] turned out to be 32 µg/mL (≈ 99 µM); in [9], 32 µg/mL (≈ 99 µM); in [10] it was 24 µg/mL (≈ 74.3 µM); in [11], 32 µg/mL (≈ 99 µM); in [12], 64 µg/mL (≈ 198 µM); in [13], 24 µg/mL (≈ 74.3 µM). Also, the MIC in test [14] turned out to be 24 µg/mL (≈ 74.3 µM); in test [15], 256 µg/mL; in test [16] it was 24 µg/mL (≈ 74.3 µM).
For `CO[C@H]1/C=C/O[C@@]2(C)Oc3c(C)c(O)c4c(O)c(c(/C=N/N5CCN(C)CC5)c(O)c4c3C2=O)NC(=O)/C(C)=C\C=C\[C@H](C)[C@H](O)[C@@H](C)[C@@H](O)[C@@H](C)[C@H](OC(C)=O)[C@@H]1C` [RIFAMPIN], the MIC is 16 µg/mL (≈ 19.4 µM) in test [1]; 16 µg/mL (≈ 19.4 µM) in test [17]; 24 µg/mL (≈ 29.2 µM) in test [2]; 24 µg/mL (≈ 29.2 µM) in test [3]; 24 µg/mL (≈ 29.2 µM) in test [4]; 24 µg/mL (≈ 29.2 µM) in test [5]. Also, the MIC in test [6] was 24 µg/mL (≈ 29.2 µM); in [7], 16 µg/mL (≈ 19.4 µM); in test [8], 16 µg/mL (≈ 19.4 µM); in [9], 24 µg/mL (≈ 29.2 µM); in test [10], 24 µg/mL (≈ 29.2 µM); in [11], 16 µg/mL (≈ 19.4 µM). Also, the MIC in [12] is 24 µg/mL (≈ 29.2 µM); in test [13], 16 µg/mL (≈ 19.4 µM).
Regarding `CCn1cc(C(=O)O)c(=O)c2cc(F)c(N3CCNCC3)cc21` [NORFLOXACIN], the MIC was found to be 0.02 µg/mL (≈ 0.0626 µM) in [1]; 0.13 µg/mL (≈ 0.407 µM) in test [17]; 0.38 µg/mL (≈ 1.19 µM) in [2]; 0.25 µg/mL (≈ 0.783 µM) in [3]; 0.19 µg/mL (≈ 0.595 µM) in [4]; 0.19 µg/mL (≈ 0.595 µM) in [5]. Further, the MIC amounted to 0.19 µg/mL (≈ 0.595 µM) in test [6]; 0.25 µg/mL (≈ 0.783 µM) in [7]; 0.13 µg/mL (≈ 0.407 µM) in test [8]; 0.25 µg/mL (≈ 0.783 µM) in test [9]; 0.25 µg/mL (≈ 0.783 µM) in test [10]; 0.25 µg/mL (≈ 0.783 µM) in test [11]. In addition, the MIC in [12] stood at 0.38 µg/mL (≈ 1.19 µM); in test [13], 0.25 µg/mL (≈ 0.783 µM); in test [14], 0.38 µg/mL (≈ 1.19 µM); in test [15], 2 µg/mL; in test [16] it was 0.75 µg/mL (≈ 2.35 µM).
Consider `CC1(C)S[C@@H]2[C@H](NC(=O)[C@H](N)c3ccccc3)C(=O)N2[C@H]1C(=O)O` [AMPICILLIN], for which the MIC in test [17] came out at 3 µg/mL (≈ 8.59 µM); in [2] it was 6 µg/mL (≈ 17.2 µM); in test [3], 6 µg/mL (≈ 17.2 µM); in test [4] it was 6 µg/mL (≈ 17.2 µM); in test [5], 6 µg/mL (≈ 17.2 µM); in test [6], 6 µg/mL (≈ 17.2 µM). The MIC in test [7] was determined as 4 µg/mL (≈ 11.4 µM); in test [8], 3 µg/mL (≈ 8.59 µM); in test [9], 6 µg/mL (≈ 17.2 µM); in test [10], 4 µg/mL (≈ 11.4 µM); in test [11] it was 3 µg/mL (≈ 8.59 µM); in test [12], 8 µg/mL (≈ 22.9 µM). The MIC in test [13] was 3 µg/mL (≈ 8.59 µM); in [14], 6 µg/mL (≈ 17.2 µM); in test [15] it was 32 µg/mL; in test [16] it was 12 µg/mL (≈ 34.3 µM).
Consider `CN(C)[C@@H]1C(O)=C(C(N)=O)C(=O)[C@@]2(O)C(O)=C3C(=O)c4c(O)cccc4[C@@](C)(O)[C@H]3C[C@@H]12` [TETRACYCLINE], for which the MIC in test [1] was determined as 2 µg/mL (≈ 4.5 µM); in [17], 6 µg/mL (≈ 13.5 µM); in [2], 16 µg/mL (≈ 36 µM); in test [3], 4 µg/mL (≈ 9 µM); in test [4], 8 µg/mL (≈ 18 µM); in test [5], 12 µg/mL (≈ 27 µM). Further, the MIC came to 4 µg/mL (≈ 9 µM) in test [6]; 4 µg/mL (≈ 9 µM) in test [7]; 4 µg/mL (≈ 9 µM) in [8]; 4 µg/mL (≈ 9 µM) in test [9]; 6 µg/mL (≈ 13.5 µM) in test [10]; 6 µg/mL (≈ 13.5 µM) in [11]. The MIC in test [12] amounted to 12 µg/mL (≈ 27 µM); in [13] it was 6 µg/mL (≈ 13.5 µM); in [14] it was 8 µg/mL (≈ 18 µM); in test [15], 128 µg/mL; in [16], 24 µg/mL (≈ 54 µM).
